The target in this assay is T1, human APJ receptor (hAPJ) (Homo sapiens, UniProt P35414).
T1 construct: expressed in transfected cells
T1 sequence (P35414 1-380): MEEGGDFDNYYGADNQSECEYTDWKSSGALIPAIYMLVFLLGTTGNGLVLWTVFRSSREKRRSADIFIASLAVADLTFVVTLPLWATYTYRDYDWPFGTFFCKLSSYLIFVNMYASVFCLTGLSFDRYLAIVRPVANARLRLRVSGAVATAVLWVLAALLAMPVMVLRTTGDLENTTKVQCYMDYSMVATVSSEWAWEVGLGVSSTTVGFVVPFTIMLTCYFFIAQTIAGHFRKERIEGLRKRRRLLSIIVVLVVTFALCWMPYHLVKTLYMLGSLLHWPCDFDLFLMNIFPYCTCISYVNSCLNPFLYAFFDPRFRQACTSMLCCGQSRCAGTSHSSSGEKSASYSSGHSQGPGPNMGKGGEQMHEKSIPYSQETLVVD
As to the kind of experiment: HTRF cAMP assay: inhibition of NKH477-stimulated cAMP in HEK cells stably expressing hAPJ. The settings on record: for Emax: HEK293, read-out: % IA, bound stated; for % IA (cAMP inhibition, hAPJ HEK): intrinsic activity; for Ranking: composite class of EC50 (hAPJ), % IA and % histamine or formal (+) charge; for inhibition of NKH477-stimulated increase in cAMP, dose dependent: concentration response curves, FIGS. 1 and 2, HEK cells stably expressing APJ. It is filed as cell-based. From the text: HTRF cAMP Assay and IP-One Assay (Cisbio)
HTRF (homogeneous time resolved fluorescence) is a technology developed by Cisbio Bioassays based on TR-FRET (time-resolved fluorescence resonance energy transfer). Cisbio Bioassays has developed a wide selection of HTRF-based assays compatible with whole cells, thereby enabling functional assays to run under more physiological conditions. The IP-One assays are competitive immunoassays using cryptate-labeled anti-IP1 monoclonal antibody and d2-labeled IP1. IP1 is a relatively stable downstream metabolite of IP3, and accumulates in cells following Gq receptor activation.
cAMP kits based on a competitive immunoassay using cryptate-labeled anti-cAMP antibody and d2-labeled cAMP were used to assay the effects of APJ compounds of the present invention. […] Cells are treated with 1 nG/mL doxycycline and seeded in all white 96 well plates @40 k/well overnight.
In general terms: Time-resolved FRET reads energy transfer from a long-lived donor to a nearby acceptor.

The mark [1] stands for this setting: HTRF cAMP Assay, per data of Table 6.
The mark [2] stands for this setting: HTRF cAMP Assay, per data of Table 6, read-out: EC50 (hAPJ), inhibition of cAMP production, bound stated.
[3] abbreviates: Table 6, hAPJ HEK cells, NKH477-stimulated cAMP, read-out: EC50 (cAMP inhibition, hAPJ HEK).
The mark [4] stands for this setting: EC50 (cAMP inhibition, hAPJ HEK), Table 6, hAPJ HEK cells, NKH477-stimulated cAMP.
Setting [5] is: EC50 (hAPJ), inhibition of cAMP production, bound stated, HTRF cAMP Assay, per data of Table 6.

The text below walks through data of patent US20160159861A1, “APJ Receptor Compounds” (priority 2013, published 2016).

Read-outs that look alike come from different tables or passages of the source. Peptide text beside a SMILES is read from it.

In the case of `CCCCCCCCCCCCCCCC(=O)N[C@H](C(=O)N[C@H](C(=O)N[C@@H](CC(=O)O)C(=O)N[C@@H](CCCNC(=N)N)C(=O)N[C@@H](CO)C(=O)N[C@@H](CO)C(=O)N[C@@H](CCC(=O)O)C(=O)N[C@H](CCCCN)C(=O)N[C@@H](CCCNC(=N)N)C(=O)N[C@@H](CCCNC(=N)N)C(=O)N[C@@H](CO)C(=O)N[C@@H](C)C(=O)N[C@@H](CC(=O)O)C(=O)N[C@@H](Cc1ccc(F)cc1)C(=O)N[C@@H](Cc1ccccc1)C(=O)N[C@H](C(N)=O)[C@@H](C)CC)C(C)C)[C@@H](C)O` [Compound 33, TVDRSSEkRRSAD(p-fluoro-Phe)FI] (HELM PEPTIDE1{[CCCCCCCCCCCCCCCC(=O)[*:2]].T.V.D.R.S.S.E.[dK].R.R.S.A.D.[O=C([C@H](Cc1ccc(F)cc1)N[*:1])[*:2]].F.I.[am]}$$$$V2.0), the Ranking result is “*** (EC50 25-50 nM (hAPJ), % IA 50-79% and either % histamine≦35% or formal (+) charge≦1)”. Besides, under setting [1], the Emax lay in the range of 50 to 79%. The EC50 (usually the concentration at which the effect is half-maximal) under setting [2] fell in the range of 25 to 50 nM. For the same compound, the concentration giving a half-maximal response (EC50) under setting [3] worked out at 30 nM. Also, the “% IA (cAMP inhibition, hAPJ HEK)” value (Table 6, hAPJ HEK cells) was found to be 80%.
For the compound `CCCCCCCCCCCCCCCC(=O)N[C@H](C(=O)N[C@H](C(=O)N[C@@H](CCCCN)C(=O)N[C@@H](CCCNC(=N)N)C(=O)N[C@@H](CO)C(=O)N[C@@H](CO)C(=O)N[C@@H](CCC(=O)O)C(=O)N[C@H](CCCCN)C(=O)N[C@@H](CCCNC(=N)N)C(=O)N[C@@H](CCCNC(=N)N)C(=O)N[C@@H](CO)C(=O)N[C@@H](C)C(=O)N[C@@H](CC(=O)O)C(=O)N[C@H](C(=O)N[C@@H](Cc1ccccc1)C(=O)N[C@H](C(N)=O)[C@@H](C)CC)[C@@H](C)CC)C(C)C)[C@@H](C)O` [Compound 21] (HELM PEPTIDE1{[CCCCCCCCCCCCCCCC(=O)[*:2]].T.V.K.R.S.S.E.[dK].R.R.S.A.D.I.F.I.[am]}$$$$V2.0), the Ranking result was “**** (EC50≦25 nM (hAPJ), % IA≧80% and either % histamine>35% or formal (+) charge>1)”; the “inhibition of NKH477-stimulated increase in cAMP, dose dependent” value is on record as “inhibited”. This compound also had a concentration for a half-maximal effect (EC50) under setting [4] of 9 nM. Besides, under setting [5], the concentration for a half-maximal effect (EC50) was not above 25 nM. In addition, under setting [1], the Emax was not below 80%. In addition, the “% IA (cAMP inhibition, hAPJ HEK)” value (Table 6, hAPJ HEK cells) turned out to be 85%.
As for `CCCCCCCCCCCCCCCC(=O)N[C@@H](CC(=O)O)C(=O)N[C@H](C(=O)N[C@@H](Cc1ccccc1)C(=O)N[C@@H](CC(N)=O)C(=O)N[C@@H](CO)C(=O)N[C@@H](CO)C(=O)N[C@@H](CCC(=O)O)C(=O)N[C@H](CCCCN)C(=O)N[C@@H](CCCNC(=N)N)C(=O)N[C@@H](CCCNC(=N)N)C(=O)N[C@@H](CO)C(=O)N[C@@H](C)C(=O)N[C@@H](CC(=O)O)C(=O)N[C@@H](CC(N)=O)C(=O)N[C@@H](Cc1ccccc1)C(=O)N[C@H](C(N)=O)[C@@H](C)CC)C(C)C` [Compound 19] (HELM PEPTIDE1{[CCCCCCCCCCCCCCCC(=O)[*:2]].D.V.F.N.S.S.E.[dK].R.R.S.A.D.N.F.I.[am]}$$$$V2.0), the Ranking result is “*** (EC50 25-50 nM (hAPJ), % IA 50-79% and either % histamine≦35% or formal (+) charge≦1)”. Besides, under setting [1], the Emax lay within 50 to 79%. Further, the 50% effective concentration (EC50) under setting [2] lay within 25 to 50 nM. Further, the concentration giving a half-maximal response (EC50) under setting [3] was found to be 5 nM. In addition, the “% IA (cAMP inhibition, hAPJ HEK)” value (Table 6, hAPJ HEK cells) is listed as 67%.
For `CCCCCCCCCCCCCCCC(=O)N[C@H](C(=O)N[C@H](C(=O)N[C@@H](CC(=O)O)C(=O)N(C)[C@@H](CCCNC(=N)N)C(=O)N[C@@H](CO)C(=O)N[C@@H](CO)C(=O)N[C@@H](CCC(=O)O)C(=O)N[C@H](CCCCN)C(=O)N[C@@H](CCCNC(=N)N)C(=O)N[C@@H](CCCNC(=N)N)C(=O)N[C@@H](CO)C(=O)N[C@@H](C)C(=O)N[C@@H](CC(=O)O)C(=O)N[C@H](C(=O)N[C@@H](Cc1ccccc1)C(=O)N[C@H](C(N)=O)[C@@H](C)CC)[C@@H](C)CC)C(C)C)[C@@H](C)O` [Compound 32] (HELM PEPTIDE1{[CCCCCCCCCCCCCCCC(=O)[*:2]].T.V.D.[meR].S.S.E.[dK].R.R.S.A.D.I.F.I.[am]}$$$$V2.0), the Ranking entry was “**** (EC50≦25 nM (hAPJ), % IA≧80% and either % histamine>35% or formal (+) charge>1)”; the “inhibition of NKH477-stimulated increase in cAMP, dose dependent” value was “inhibited”. Under setting [4], this compound showed a concentration for a half-maximal effect (EC50) of 24 nM. In addition, the EC50 under setting [5] is not above 25 nM. The Emax under setting [1] is not below 80%. Also, the “% IA (cAMP inhibition, hAPJ HEK)” value (Table 6, hAPJ HEK cells) is recorded as 97%.
For `CCCCCCCCCCCCCCCC(=O)N[C@H](C(=O)N[C@H](C(=O)N[C@@H](Cc1ccccc1)C(=O)N(C)[C@@H](CCCNC(=N)N)C(=O)N[C@@H](CO)C(=O)N[C@@H](CO)C(=O)N[C@@H](CCC(=O)O)C(=O)N[C@H](CCCCN)C(=O)N[C@@H](CCCNC(=N)N)C(=O)N[C@@H](CCCNC(=N)N)C(=O)N[C@@H](CO)C(=O)N[C@@H](C)C(=O)N[C@@H](CC(=O)O)C(=O)N[C@H](C(=O)N[C@@H](Cc1ccccc1)C(=O)N[C@H](C(N)=O)[C@@H](C)CC)[C@@H](C)CC)C(C)C)[C@@H](C)O` [Compound 31] (HELM PEPTIDE1{[CCCCCCCCCCCCCCCC(=O)[*:2]].T.V.F.[meR].S.S.E.[dK].R.R.S.A.D.I.F.I.[am]}$$$$V2.0), the Ranking result is “** (EC50 25-50 nM (hAPJ), % IA 50-79% and either % histamine>35% or formal (+) charge>1)”. For the same compound, the “% IA (cAMP inhibition, hAPJ HEK)” value (Table 6, hAPJ HEK cells) came out at 84%.
As to `CCCCCCCCCCCCCCCC(=O)N[C@@H](CC(=O)O)C(=O)N[C@H](C(=O)N[C@@H](Cc1ccccc1)C(=O)N[C@@H](CCCNC(=N)N)C(=O)N[C@@H](CO)C(=O)N[C@@H](CO)C(=O)N[C@@H](CCC(=O)O)C(=O)N[C@H](CCCCN)C(=O)N[C@@H](CCCNC(=N)N)C(=O)N[C@@H](CCCNC(=N)N)C(=O)N[C@@H](CO)C(=O)N[C@@H](C)C(=O)N[C@@H](CC(=O)O)C(=O)N[C@@H](CC(N)=O)C(=O)N[C@@H](Cc1ccccc1)C(=O)N[C@H](C(N)=O)[C@@H](C)CC)C(C)C` [Compound 20] (HELM PEPTIDE1{[CCCCCCCCCCCCCCCC(=O)[*:2]].D.V.F.R.S.S.E.[dK].R.R.S.A.D.N.F.I.[am]}$$$$V2.0), the Ranking result was “*** (EC50 25-50 nM (hAPJ), % IA 50-79% and either % histamine≦35% or formal (+) charge≦1)”. Also, the Emax under setting [1] was in the range of 50 to 79%. In addition, the EC50 under setting [2] was 25 to 50 nM. Further, under setting [3], the EC50 was determined as 32 nM. For the same compound, under “Table 6, hAPJ HEK cells”, the “% IA (cAMP inhibition, hAPJ HEK)” value is on record as 98%.
Turning to `CCCCCCCCCCCCCCCC(=O)N[C@H](C(=O)N[C@H](C(=O)N[C@@H](CC(=O)O)C(=O)N[C@@H](CCCNC(=N)N)C(=O)N[C@@H](CO)C(=O)N[C@@H](CO)C(=O)N[C@@H](CCCCN)C(=O)N[C@@H](CCC(=O)O)C(=O)N[C@H](CCCCN)C(=O)N[C@@H](CCCNC(=N)N)C(=O)N[C@@H](CCCNC(=N)N)C(=O)N[C@@H](CO)C(=O)N[C@@H](C)C(=O)N[C@@H](CC(=O)O)C(=O)N[C@H](C(=O)N[C@@H](Cc1ccccc1)C(=O)N[C@H](C(N)=O)[C@@H](C)CC)[C@@H](C)CC)C(C)C)[C@@H](C)O` [Compound 7] (HELM PEPTIDE1{[CCCCCCCCCCCCCCCC(=O)[*:2]].T.V.D.R.S.S.K.E.[dK].R.R.S.A.D.I.F.I.[am]}$$$$V2.0), the Ranking entry is “*** (EC50 25-50 nM (hAPJ), % IA 50-79% and either % histamine≦35% or formal (+) charge≦1)”. In addition, under setting [4], a half-maximal response (EC50) required 9 nM. Under setting [5], this compound came in with an EC50 of 25 to 50 nM. Further, under setting [1], the Emax was 50 to 79%. The “% IA (cAMP inhibition, hAPJ HEK)” value (Table 6, hAPJ HEK cells) is 59%.
